In publication PMC4364779, “IMD-4690, a Novel Specific Inhibitor for Plasminogen Activator Inhibitor-1, Reduces Allergic Airway Remodeling in a Mouse Model of Chronic Asthma via Regulating Angiogenesis and Remodeling-Related Mediators” (PLoS ONE, 2015):

How the values were obtained:
[1] = target: T1, PAI-3 (Protein C inhibitor/SERPINA5) (Homo sapiens, UniProt P05154); assay: SERPIN inhibition selectivity, similar enzymatic method; assay type: biochemical; details: Ser protease: uPA
T1 sequence (P05154 26-406): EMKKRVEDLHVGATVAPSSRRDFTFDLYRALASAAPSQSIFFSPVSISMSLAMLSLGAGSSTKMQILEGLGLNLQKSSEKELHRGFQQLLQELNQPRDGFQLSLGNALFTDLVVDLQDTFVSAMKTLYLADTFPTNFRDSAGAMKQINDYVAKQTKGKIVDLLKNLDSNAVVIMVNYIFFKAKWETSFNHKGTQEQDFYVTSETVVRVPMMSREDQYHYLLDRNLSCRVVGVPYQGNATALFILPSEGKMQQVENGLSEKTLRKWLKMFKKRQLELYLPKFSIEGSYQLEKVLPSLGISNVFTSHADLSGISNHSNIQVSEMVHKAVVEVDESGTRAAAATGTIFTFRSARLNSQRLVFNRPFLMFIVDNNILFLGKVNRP
Experimental: (§1) Inhibitory effect of IMD-4690 on the activity of PAI-1 was measured by the direct tPA assay. Briefly, recombinant tPA and PAI-1 was mixed with IMD-4690, and then tPA substrate with fluorescent pigment (Pyr-Gly-Arg-MCA) was added in this mixture and incubated. The enzymatic activity was calculated by measuring the fluorescence. The inhibitory activity of IMD-4690 on other enzymes was measured with the similar method.

PAI-2 (SERPINB2) = PAI-2 (SERPINB2) (Homo sapiens, UniProt P05120); assay: as above; assay type: biochemical; details: Ser protease: uPA
Experimental: as §1

[2] = target: α1-anti-trypsin (SERPINA1) (Homo sapiens, UniProt P01009); assay: as above; assay type: biochemical; details: Ser protease: Trypsin, Neu-Elastase
Experimental: as §1

[3] = target: T2, Heparin Cofactor 2 (HC2/SERPIND1) (Homo sapiens, UniProt P05546); assay: as above; assay type: biochemical; details: Ser protease: Thrombin
T2 sequence (P05546 20-499): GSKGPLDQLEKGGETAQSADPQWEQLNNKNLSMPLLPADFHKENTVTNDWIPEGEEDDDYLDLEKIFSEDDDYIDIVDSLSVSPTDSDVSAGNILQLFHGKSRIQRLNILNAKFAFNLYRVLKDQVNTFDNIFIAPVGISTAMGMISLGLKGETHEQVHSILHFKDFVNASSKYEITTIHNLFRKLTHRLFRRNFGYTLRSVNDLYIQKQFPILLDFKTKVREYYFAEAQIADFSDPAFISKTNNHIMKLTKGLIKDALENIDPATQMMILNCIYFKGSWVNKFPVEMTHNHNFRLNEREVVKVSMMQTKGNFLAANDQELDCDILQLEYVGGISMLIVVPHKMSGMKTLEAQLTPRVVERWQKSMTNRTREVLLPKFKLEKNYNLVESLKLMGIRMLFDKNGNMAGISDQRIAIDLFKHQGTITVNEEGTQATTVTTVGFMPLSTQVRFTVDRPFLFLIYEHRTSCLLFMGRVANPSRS
Experimental: as §1

[4] = target: T3, α1-anti-chymotrypsin (SERPINA3) (Homo sapiens, UniProt P01011); assay: as above; assay type: biochemical; details: Ser protease: Chymotrypsin, Cathepsin G
T3 sequence (P01011 24-423): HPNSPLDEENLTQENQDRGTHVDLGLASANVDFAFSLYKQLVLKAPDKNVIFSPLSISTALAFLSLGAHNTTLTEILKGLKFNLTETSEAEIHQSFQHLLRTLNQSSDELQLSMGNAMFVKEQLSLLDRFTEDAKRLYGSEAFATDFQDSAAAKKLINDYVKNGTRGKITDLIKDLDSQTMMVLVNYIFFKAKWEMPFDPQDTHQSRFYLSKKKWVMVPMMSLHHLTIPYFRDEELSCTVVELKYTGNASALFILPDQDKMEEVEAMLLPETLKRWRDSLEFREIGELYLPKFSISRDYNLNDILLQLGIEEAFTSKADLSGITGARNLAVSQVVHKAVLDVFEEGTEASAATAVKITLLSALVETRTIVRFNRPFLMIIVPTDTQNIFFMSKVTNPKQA
Experimental: as §1

[5] = target: T4, α1-anti-plasmin (SERPINF2) (Homo sapiens, UniProt P08697); assay: as above; assay type: biochemical; details: Ser protease: Plasmin
T4 sequence (P08697 40-491): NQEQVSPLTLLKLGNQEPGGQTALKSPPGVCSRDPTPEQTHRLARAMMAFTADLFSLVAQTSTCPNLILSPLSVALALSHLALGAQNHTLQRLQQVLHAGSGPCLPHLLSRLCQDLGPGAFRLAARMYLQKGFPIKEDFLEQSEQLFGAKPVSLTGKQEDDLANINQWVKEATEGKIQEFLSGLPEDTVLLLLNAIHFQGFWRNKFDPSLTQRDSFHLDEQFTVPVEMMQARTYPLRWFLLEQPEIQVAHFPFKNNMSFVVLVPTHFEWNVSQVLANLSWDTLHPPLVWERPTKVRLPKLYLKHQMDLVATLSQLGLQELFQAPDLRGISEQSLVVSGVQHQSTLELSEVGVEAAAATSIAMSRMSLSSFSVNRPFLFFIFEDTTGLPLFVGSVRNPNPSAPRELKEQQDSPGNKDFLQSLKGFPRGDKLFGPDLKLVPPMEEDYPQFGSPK
Experimental: as §1

[6] = target: Anti-thrombin (AT3/SERPINC1) (Homo sapiens, UniProt P01008); assay: as above; assay type: biochemical; details: Ser protease: Thrombin, factor Xa
Experimental: as §1

[7] = tested on: chronic allergen exposure model of bronchial asthma in mice; assay: BALF cell classification, chronic Dp asthma model; assay type: in vivo, mouse; details: 10 mg/kg i.p., vs Dp/CMC mice
Experimental: All mice were sensitized on days 0 and 7 by intraperitoneal injections of 10 μg of Dp dissolved in 500 μL saline and mixed with 1mg of Alum (Sigma-Aldrich Japan). Dp-sensitized mice were challenged intranasally with 10 μg (10 μL) Dp in 70 μL saline on alternate days, 3 days per week, from days 14 to 67. The mice were also treated intraperitoneally with IMD-4690 (10 mg/kg) (Dp/IMD group) or CMC alone (Dp/CMC group) at the same day with Dp challenge. As a control, mice were challenged with saline and given CMC during this period (control/CMC group) (Fig. 1A). Each experiment was performed using six mice per group.
After measurement of lung resistance, the mice were euthanized humanely by cutting the axillary artery to obtain serum samples. Following sacrifice, bronchoalveolar lavage was performed twice with saline (0.8 mL) by using a soft cannula. After counting the cell numbers in the BALF using the automated cell viability analyzer Vi-Cell (Beckman Coulter, Calif., USA), BALF samples were cytospun onto glass slides and stained with Diff-Quick (Baxter, Miami, Fla., USA) for classification.

Sequence of Anti-thrombin (AT3/SERPINC1) (P01008 33-464): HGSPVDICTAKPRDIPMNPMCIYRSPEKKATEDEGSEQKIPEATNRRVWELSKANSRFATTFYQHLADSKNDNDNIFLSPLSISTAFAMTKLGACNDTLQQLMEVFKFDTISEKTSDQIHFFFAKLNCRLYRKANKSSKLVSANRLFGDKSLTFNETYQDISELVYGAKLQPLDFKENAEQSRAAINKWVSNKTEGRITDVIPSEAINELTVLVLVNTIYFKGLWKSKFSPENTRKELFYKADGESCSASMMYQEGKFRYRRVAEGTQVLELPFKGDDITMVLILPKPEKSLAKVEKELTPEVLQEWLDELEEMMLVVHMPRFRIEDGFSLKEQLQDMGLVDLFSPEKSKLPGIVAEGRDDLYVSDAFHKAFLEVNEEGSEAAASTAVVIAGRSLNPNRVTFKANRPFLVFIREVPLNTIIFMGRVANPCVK
Sequence of α1-anti-trypsin (SERPINA1) (P01009 25-418): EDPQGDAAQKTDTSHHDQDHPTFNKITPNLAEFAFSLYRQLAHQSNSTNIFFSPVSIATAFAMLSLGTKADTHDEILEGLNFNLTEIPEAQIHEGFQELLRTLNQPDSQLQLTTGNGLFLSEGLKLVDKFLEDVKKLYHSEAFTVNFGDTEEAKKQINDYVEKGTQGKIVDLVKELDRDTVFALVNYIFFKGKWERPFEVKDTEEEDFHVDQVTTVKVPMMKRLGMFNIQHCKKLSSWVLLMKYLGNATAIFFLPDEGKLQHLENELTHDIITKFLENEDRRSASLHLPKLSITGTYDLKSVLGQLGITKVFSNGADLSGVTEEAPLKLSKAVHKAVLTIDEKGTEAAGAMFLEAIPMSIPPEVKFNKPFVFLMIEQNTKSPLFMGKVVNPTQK
Sequence of PAI-2 (SERPINB2) (P05120 whole entry): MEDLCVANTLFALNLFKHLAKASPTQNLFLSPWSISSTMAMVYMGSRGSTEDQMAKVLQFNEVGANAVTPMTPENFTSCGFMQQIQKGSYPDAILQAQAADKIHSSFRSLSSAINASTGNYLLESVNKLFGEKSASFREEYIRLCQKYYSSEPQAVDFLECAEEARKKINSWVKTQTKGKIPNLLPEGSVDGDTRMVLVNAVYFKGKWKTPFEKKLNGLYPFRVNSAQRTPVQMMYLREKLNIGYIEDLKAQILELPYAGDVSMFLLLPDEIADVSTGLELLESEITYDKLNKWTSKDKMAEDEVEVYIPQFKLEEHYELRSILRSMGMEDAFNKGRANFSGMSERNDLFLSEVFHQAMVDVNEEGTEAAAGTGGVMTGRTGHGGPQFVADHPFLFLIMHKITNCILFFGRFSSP

- IC50 [1]: > 25 µM
- IC50 (PAI-2 (SERPINB2)): > 25 µM
- IC50 [2]: > 25 µM
- IC50 [3]: > 25 µM
- IC50 [4]: > 25 µM
- IC50 [5]: > 25 µM
- IC50 [6]: > 25 µM
SMILES: CC(C)(C)c1ccc(Oc2cc(-c3ccc(OC(F)(F)F)cc3)ccc2OCC(=O)O)cc1 [IMD-4690, 2-[[3-(4-tert-Butylphenoxy)-4'-(trifluoromethoxy) [1,1'-biphenyl]-4-yl]oxy] acetic acid]
- Number of eosinophils in BALF [7]: significantly decreased
- Number of lymphocytes in BALF [7]: significantly decreased
